# Experimental data from publication PMC7408072 (Pharmaceutics, 2020).
# Experiments:
# [1] = cited from earlier work
# Source text: We detected 0.4% ± 0.1% of injected dose/g of TAMRA-Tat in mouse brain homogenate, which is in line with a previous study reporting 0.1% of injected dose/g of ^111In-DOTA-labelled Tat ([…]) following 1-h circulation in mice. Moreover, less TAMRA-Tat-NR2B9c and TAMRA-Tat-N-dimer appeared to accumulate in the brain compared to TAMRA-Tat. This observation is in agreement with the observed BBB permeation by the Tat-conjugated peptides in live mice, supporting our earlier notion that cargo conjugation to Tat impacts its resulting brain delivery.
# [2] = cited from earlier work; remark: listed apart in the source
# Method: Peptide-based drugs are prone to chemical degradation when presented to enzymes during systemic circulation. Therefore, the stability of the peptide constructs was examined in serum-supplemented media and during incubation in a state-of-the-art in vitro BBB model made up of primary BCECs co-cultured with primary rat astrocytes. Despite their common peptide nature, the stability varied markedly. […] The half-life of ^125I-labelled Tat ([…]) in mouse serum h ...
# [3] = system: bovine BCECs co-cultured with rat astrocytes; assay: Peptide uptake into endothelial cells and astrocytes by confocal microscopy after fixation (bovine BBB model); type: cell-based; conditions: 10 µM or 100 µM TAMRA, 3 h, fixed cells, confocal microscopy (Figure S4)
# Method: […] TEER was measured at room temperature using an Endohm 12 cup (World Precision Instruments, Sarasota, FL, USA) connected to a Millicell-ERS device (Millipore, Bedford, MA, USA). TEER was measured before application of the peptides and after each experiment. The bovine model had initial TEER values ranging from 771 to 1332 Ω·cm^2, whereas the mouse model had initial TEER values ranging from 136 to 217 Ω·cm^2.
# To visualize the TAMRA-peptide taken up by the endothelial cells and astrocytes, the remaining filters (one per batch) from the permeation study using the in vitro bovine BBB model were prepared for confocal microscopy. After removal of the peptide solutions, the cells were fixed with 3% paraformaldehyde in PBS for 15 min at room temperature with horizontal shaking (90 rpm). The cells were washed thrice with PBS prior to permeabilization in 0.1% Triton X-100 in PBS for 5 min and blocking in 2% BSA in PBS for 30 min at room temperature with horizontal shaking (90 rpm). The filter inserts were cut out, divided into smaller pieces, and transferred to a 48-well plate to stain zonula ocludens-1 (ZO-1) in the BCECs and F-actin in the astrocytes. Filter pieces with BCECs facing upwards were incubated with a primary antibody directed against ZO-1 (1:100 in PBS with 2% BSA; Thermo Fischer Scientific, Bedford, MA, USA, no. 617300) for 2 h at room temperature. Subsequently, the filters were washed thrice for 5 min in PBS with 2% BSA prior to 30 min incubation with an Alexa-488-conjugated secondary antibody (1:100 in PBS with 2% BSA; Thermo Fischer Scientific, Bedford, MA, USA, no. A11008). Filter pieces with astrocytes facing upwards were incubated with Alexa-488-conjugated phalloidin (1:133 in PBS with 2% BSA; Thermo Fischer Scientific, Bedford, MA, USA) for 30 min at room temperature and washed thrice for 5 min in PBS with 2% BSA. The filter pieces were mounted on glass slides under coverslips using Immu-Mount™ mounting media and imaged using single wavelength excitation a Zeiss 510 laser-scanning confocal microscope (Carl Zeiss, Jena, Germany).
# [4] = luminal incubation on bovine brain endothelial cells co-cultured with rat astrocytes in FBS-free differentiation medium; conditions: 37 °C, up to 4 h
# [5] = differentiation medium (cell media supplemented with 10% fetal bovine serum (FBS)); conditions: 37 °C, up to 4 h
substance,measurement,setting,value
GRKKRRQRRRPPQ [^111In-DOTA-labelled Tat],brain level following 1-h circulation in mice,[1],0.1 % of injected dose/g
same,half-life in human serum,[2],528 min
TAMRA [reference compound],uptake of TAMRA as a single entity into the endothelial cells or the astrocytes,[3],not internalized
TAMRA-KLSSIESDV,not cleaved,[4],95.7% ± 1.6% remaining after 4 h
same,not cleaved,[5],92.0% ± 12.6% of the initial concentration remaining after 4 h
YGRKKRRQRRR [^125I-labelled Tat],half-life in mouse serum,[2],2.7 min
